The term AC50 denotes the concentration giving half of the maximal activity seen. One may read the IC50 as the midpoint of a concentration-inhibition curve.

This is an account of results in article PMC8765781, “A platform of assays for the discovery of anti-Zika small-molecules with activity in a 3D-bioprinted outer-blood-retina model” (PLoS ONE, 2022).

Read-outs that look alike come from different tables or passages of the source.

The test system of data set [1] is wild-type ZIKV (Ugandan MR766 strain) in Vero cells. As to the kind of experiment: ZIKV cytopathic effect (CPE) inhibition qHTS assay, CellTiter-Glo readout. It counts as cell-based, Zika virus. As to conditions: for IC50: read-out: ZIKV-infection (CPE, ZIKV Antiviral Assays), IC50.
Data set [2] has as its system mCherry-ZIKV in human neuronal progenitor cells. As to the kind of experiment: microbe, parasite or virus in culture. In kind it is cell-based, Zika virus.
The subject of data set [3] is human neuronal progenitor cells (NPC).
Data set [4] deals with caspase-3 activity induced by ZIKV in Vero cells. Description: cells. It counts as cell-based. As to conditions: read-out: Caspase 3 (ZIKV Antiviral Assays), IC50.
The test system of data set [5] is ZIKV-mCherry (Cambodian strain FSS13025). As to the kind of experiment: microbe, parasite or virus in culture. It counts as cell-based, Zika virus.
Data set [6] concerns DENV (Dengue virus type 2, strain New Guinea C).
The subject of data set [7] is ZIKV-RLuc (Cambodian strain FSS13025). As to the kind of experiment: microbe, parasite or virus in culture. In kind it is cell-based, Zika virus. As to conditions: read-out: Rluc-ZIKV (ZIKV Antiviral Assays), IC50.
The nature of data set [8]: in vitro. As to conditions: African green monkey.
Data set [9] has as its system Solute carrier organic anion transporter family member 1B1. As to conditions: cited from earlier work.
Data set [10] in a line: in vitro. As to conditions: human.
Data set [11] deals with Tyrosine-protein phosphatase non-receptor type 1. As to conditions: cited from earlier work.
Data set [12] deals with Transcription factor AP-1. As to conditions: cited from earlier work.
The subject of data set [13] is ZIKV-mCherry in iPSC-derived RPE monoculture. In kind it is cell-based, Zika virus.
Data set [14] has as its system ZIKV-mCherry in 3D-oBRB tissue. In kind it is cell-based, Zika virus.
Where [15] appears, read: Zika virus, Vero, read-out: Log AC50 (M) (converted).

As to “5-methylcytidine [NCGC00484060-01, reference compound]”, in [1], the “CC-v2 (curve class classification of the dose response curve)” value is -1.2, the Efficacy is -42.621, the “Log AC50 (M)” value is -4.8362 M and the “Max Resp” value is given as -39.681. In addition, the IC50 in data set [1] was found to be 14.6 µM. Besides, in data set [1] (read-out: AC50), the AC50 was 1.46e-05 M. In data set [2], the “CC-v2 (curve class)” value is given as -2.2, the Efficacy is listed as -64.821, the “Log AC50 (M)” value is -4.4 M and the “Max Resp” value is on record as -51.196. Moreover, the AC50 in [2] (read-out: AC50) amounted to 39.8 µM. Besides, in data set [2] (read-out: NPC (ZIKV Antiviral Assays), IC50), the IC50 stood at 39.8 µM. In the data set on HepG2 cells, this compound yielded a CC50 above 30 µM. The compound further registered a CC50 in data set [3] of 19.2 µM. Moreover, in the data set on ZIKV, the “SI value ZIKV (CC50/EC50)” value is 28, the “Selectivity Index ZIKV (CC50/EC50)” value is 28 and the “ZIKV active Yes/No” value is recorded as “Yes”. Moreover, the IC50 in [4] (ZIKV-infected Vero cells, 48 hr, unit inferred) was above 48 µM. This compound also yielded a CC50 with Vero cells above 50 µM. Besides, in data set [5], the “CC-v2 (curve class of the dose response curve)” value is -1.2; the “Efficacy (difference between neutral response and maximum compound response)” value was -45.337; the “Log AC50 (M)” value was -5.0741 M; the “Max Resp (difference between neutral response and response at highest compound concentration)” value is reported as -100.16. Besides, the AC50 in data set [5] (read-out: AC50) worked out at 8.43e-06 M. Besides, in the data set with YFV (YFV 17D), the “SI value YFV (CC50/EC50)” value was 3, the “Selectivity Index YFV (CC50/EC50)” value is listed as 3 and the “YFV active Yes/No” value is listed as “Yes”. In addition, in the data set on WNV (Kern515/WN02), the “SI value WHV (CC50/EC50)” value came to 1.8, the “Selectivity Index WHV (CC50/EC50)” value was 2 and the “WHV active Yes/No” value is “No”. In addition, the “DENV active Yes/No” value in data set [6] was “No”. In data set [7], the IC50 was 18.5 µM.

On to `CC1OC(OC2C(OC(=O)[C@]34CCC(C)(C)C[C@H]3C3=CCC5[C@@]6(C)CC[C@H](OC7OC(C(=O)O)C(O)C(O)C7O)C(C)(C)C6CC[C@@]5(C)[C@]3(C)CC4O)OC(CO)C2O)C(O)C(O)C1OC1OCC(O)C(O)C1O` (stereo partly drawn) [NCGC00381102-01], for which, in data set [1], the “CC-v2 (curve class classification of the dose response curve)” value was -3 and the Efficacy was -33.279. Also, the AC50 in data set [1] (Zika virus, Vero) was determined as 1.55e-05 M. The concentration for half-maximal inhibition (IC50) in [1] (Zika virus, Vero, 48 h) stood at 15.5 µM. Besides, the half-maximal activity concentration (AC50) in [1] (setting [15]) is 1.55e-05 M. For the same compound, the IC50 in data set [4] (Zika virus, Vero, 48 h) was above 48 µM. In the data set “in vitro [8]” (Vero cells), the CC50 at 48 h was above 50 µM. Further, in [5], the “CC-v2 (curve class of the dose response curve)” value is listed as -1.4; the “Efficacy (difference between neutral response and maximum compound response)” value is recorded as -69.614; the “Max Resp (difference between neutral response and response at highest compound concentration)” value is recorded as -99.592. Further, the 50% inhibitory concentration (IC50) in data set [7] (Zika virus, Vero, 48 h) is 6.19 µM. Further, the “-Log(IC50) M, Solute carrier organic anion transporter family member 1B1” value in data set [9] is on record as “Solute carrier organic anion transporter family member 1B1 -Log(IC50) M~5.40~-Log(IC50) M~0.8333~Target”.

On to `CC1=C[C@H]2O[C@@H]3[C@H](O)[C@@H](O)[C@](C)([C@@]2(CO)C[C@@H]1O)[C@]31CO1` [NCGC00381381-01, T-2 toxin tetraol], for which the CC50 with HepG2 cells (read-out: Cell toxicity counterscreen HepG2, CC50) is above 30 µM; in the data set with Vero cells (read-out: Cell toxicity counterscreen Vero, CC50) it was above 50 µM.

`CC1(C)CC[C@]2(C(=O)O)CC[C@]3(C)C(=CC[C@@H]4[C@@]5(C)CC[C@H](O[C@@H]6O[C@H](C(=O)O)[C@@H](O)[C@H](O)[C@H]6O)C(C)(C)[C@@H]5CC[C@]43C)[C@@H]2C1` [NCGC00384528-01, Calenduloside E] gave an Efficacy in [1] of -27.436. The half-maximal activity concentration (AC50) in [1] (Zika virus, Vero) was 1.37e-05 M; in [1] (setting [15]), 1.37e-05 M; in data set [5] (Zika virus, Vero), 4.99e-06 M; in [5] (setting [15]), 4.99e-06 M. In addition, the IC50 came to 13.7 µM in data set [1] (Zika virus, Vero, 48 h); 0.001 µM in data set [4] (Zika virus, Vero, 48 h); 11 µM in [7] (Zika virus, Vero, 48 h). The compound further registered a CC50 at 48 h in the data set “in vitro [8]” (Vero cells) above 50 µM. Moreover, in data set [5], the “CC-v2 (curve class of the dose response curve)” value is listed as -1.2. The “Efficacy (difference between neutral response and maximum compound response)” value in data set [5] is -57.341. Further, the “Max Resp (difference between neutral response and response at highest compound concentration)” value in [5] is -100.305. In addition, the CC50 in “in vitro [10]” is above 30 µM. Also, in [11], the “-Log(IC50) M, Tyrosine-protein phosphatase non-receptor type 1” value is given as “Tyrosine-protein phosphatase non-receptor type 1 -Log(IC50) M~5.46~-Log(IC50) M~0.7284~Target”.

With `CC1(C)CC[C@]2(C(=O)O)CC[C@]3(C)C(=CCC4[C@@]5(C)CC[C@H](O[C@H]6O[C@H](C(=O)O)[C@@H](O)[C@H](O[C@@H]7O[C@H](CO)[C@H](O)[C@H](O)[C@H]7O)[C@H]6O)C(C)(C)C5CC[C@]43C)[C@@H]2C1` (stereo partly drawn) [NCGC00385211-01, Calenduloside G], the Efficacy in data set [1] is recorded as -58.411. Further, the AC50 in data set [1] (Zika virus, Vero) was 1.23e-05 M; in data set [1] (setting [15]), 1.23e-05 M; in [5] (Zika virus, Vero) it was 3.19e-06 M; in data set [5] (setting [15]) it was 3.19e-06 M. For the same compound, the IC50 in data set [1] (Zika virus, Vero, 48 h) is 12.3 µM; in data set [4] (Zika virus, Vero, 48 h), 1.39 µM; in data set [7] (Zika virus, Vero, 48 h) it was 2.2 µM. The CC50 at 48 h in “in vitro [8]” is above 50 µM. The “CC-v2 (curve class of the dose response curve)” value in data set [5] was -1.3. The “Efficacy (difference between neutral response and maximum compound response)” value in data set [5] is listed as -66.223. Besides, the “Max Resp (difference between neutral response and response at highest compound concentration)” value in data set [5] is on record as -100.305. Moreover, in data set [12], the “-Log(IC50) M, Transcription factor AP-1” value was “Transcription factor AP-1 -Log(IC50) M~4.74~-Log(IC50) M~0.8101~Target”.

Take `CO[C@@H]1[C@H](N(C)C(=O)c2ccccc2)C[C@H]2O[C@]1(C)n1c3ccccc3c3c4c(c5c6ccccc6n2c5c31)C(=O)NC4` [midostaurin]: the “Effect on barrier function” value in data set [13] was “exacerbated the barrier function loss”. The “Retention of barrier function (TEER)” value in [14] is “about 40%”.

As for `O=C(Nc1ccc([N+](=O)[O-])cc1Cl)c1cc(Cl)ccc1O` [niclosamide], the “Effect on barrier function” value in [13] and in data set [14] was “did not recover the barrier function” throughout. In addition, the “Identified as active in CPE assay validation set” value in [1] is “identified”.
